Measurements: US11279079B2, “Cell electrochemical sensor based on 3D printing technology and application thereof” (Jiangnan University, priority 2020, dated 2022)

Tests used:
[1] = pigs, in vivo; cited from earlier work
[2] = test system: lung adenocarcinoma epithelial cells A549; experiment: Cell electrochemical sensor (3D-printed A549/carbon nanofiber/GelMA on screen-printed carbon electrode), EIS cytotoxicity and combination index evaluation; format: cell-based, human; conditions: for IC50 value measured by the EIS method: A549 cell sensor of example 1, 24 hours toxin stimulation, single toxin or combined effect; for impedance value of the cell sensor with increasing dose: concentration range of 0.1-5 μg/mL, 24 hours
Description: In an embodiment of the disclosure, the cell sensor needs to be incubated before application, and specific operations comprise: dropping a DMEM cell culture medium at a working electrode of a screen-printed carbon electrode to ensure that the culture medium can cover a cell/carbon nanofiber/GelMA complex on the working electrode to provide cells with nutrients needed for growth, and then placing the working electrode in an incubator with the carbon dioxide concentration of 5% and the humidity of 95% for incubation at 37° C. for 6-12 hours; after incubation, removing the original culture medium on the working electrode, diluting toxin standard substances with the DMEM cell culture medium into gradient concentration solutions, dropping the gradient concentration solutions on the working electrode printed with cells, and then carrying out electrochemical detection after placing the working electrode in the incubator for effect for 24 hours.
In an embodiment of the disclosure, the method uses a modified screen-printed carbon electrode as a sensing interface, a PET material is used as a substrate, the working electrode is composed of carbon, the reference electrode is composed of silver/silver chloride, the counter electrode is composed of carbon, electrochemical detection adopts electrochemical impedance spectroscopy (EIS) to test electrical signal changes of cells stimulated by toxins, the initial potential is 0.2 V, and the frequency range is 1 Hz-10^5 Hz.
In an embodiment of the disclosure, the electrochemical AC impedance method (EIS) measures the signals obtained by the electrochemical sensor stimulated by different concentrations of toxins, the impedance value is calculated by fitting the equivalent circuit with Zview software, the cell viability inhibition rates of different concentrations of toxins are calculated, and the calculation method is as follows: […]
(1) Drug stimulation: An original culture medium on a working electrode is removed, toxin standard substances are diluted with a DMEM cell culture medium into gradient concentration solutions, and then 150 μL of DON toxin solutions in the concentration range of 0.1, 0.2, 0.5, 1, 2 and 5 μg/mL, 150 μL of 15-ADON toxin solutions in the concentration range of 0.1, 0.2, 0.5, 1, 2 and 5 μg/mL and 150 μL of DON+15-ADON toxin solutions in the concentration range of 0.1+0.1, 0.2+0.2, 0.5+0.5, 1+1, 2+2 and 5+5 μg/mL are taken and dropped on the working electrode printed with cells respectively, the working electrode is placed in an incubator for effect for 24 hours, and corresponding impedance values are measured. […]

SMILES: CC(=O)O[C@@H]1C[C@]2(C)[C@@]3(CO)[C@H](O)C(=O)C(C)=C[C@H]3O[C@H]1[C@@]21CO1 [3-ADON]
- conversion into DON in blood [1]: quickly converted into DON

SMILES: CC1=C[C@H]2O[C@@H]3[C@H](O)C[C@](C)([C@@]2(CO)[C@H](O)C1=O)[C@]31CO1 [DON, deoxynivalenol]
- IC50 value measured by the EIS method [2]: 0.9281 µg/mL
- impedance value of the cell sensor with increasing dose [2]: gradually reduced

SMILES: CC(=O)OC[C@]12[C@H](O)C(=O)C(C)=C[C@H]1O[C@@H]1[C@H](O)C[C@@]2(C)[C@]12CO2 [15-ADON, 15-acetyl-deoxynivalenol]
- IC50 value measured by the EIS method [2]: 1.2560 µg/mL
- impedance value of the cell sensor with increasing dose [2]: gradually reduced
